Columns and labels:
Assay in all cases: KINOMEscan competition binding
Settings in all cases: compound 1.0 µM
CDK4 CCND1 (human) = CDK4 CCND1 (human) (UniProt P11802+P24385)
RPS6KA3 KD1 (human) = RPS6KA3 KD1 (human) (UniProt P51812)
DAPK2 (human) = DAPK2 (human) (UniProt Q9UIK4)
PIK3CD (human) = PIK3CD (human) (UniProt O00329)
[1] = test system: FLT3 (human), P36888 [K663Q]
ULK1 (human) = ULK1 (human) (UniProt O75385)
PLK4 (human) = PLK4 (human) (UniProt O00444)
DMPK (human) = DMPK (human) (UniProt Q09013)
DYRK2 (human) = DYRK2 (human) (UniProt Q92630)
[2] = test system: PIK3CA (human), P42336 [E545A]
CDK5 (human) = CDK5 (human) (UniProt Q00535)
ACVR2B (human) = ACVR2B (human) (UniProt Q13705)
RPS6KA4 KD1 (human) = RPS6KA4 KD1 (human) (UniProt O75676)
TAOK3 (human) = TAOK3 (human) (UniProt Q9H2K8)
MLTK (human) = MLTK (human) (UniProt Q9NYL2)
EPHA6 (human) = EPHA6 (human) (UniProt Q9UF33)
PRKCI (human) = PRKCI (human) (UniProt P41743)
NUAK1 (human) = NUAK1 (human) (UniProt O60285)
PRKAA1 (human) = PRKAA1 (human) (UniProt Q13131)
[3] = biological target: TYK2 JH2 pseudokinase (human) (UniProt P29597)
FGFR2 (human) = FGFR2 (human) (UniProt P21802)
RIOK1 (human) = RIOK1 (human) (UniProt Q9BRS2)
PRKD1 (human) = PRKD1 (human) (UniProt Q15139)
CIT (human) = CIT (human) (UniProt O14578)
MAST1 (human) = MAST1 (human) (UniProt Q9Y2H9)
MAPK13 (human) = MAPK13 (human) (UniProt O15264)
MAPKAPK2 (human) = MAPKAPK2 (human) (UniProt P49137)
MERTK (human) = MERTK (human) (UniProt Q12866)
HCK (human) = HCK (human) (UniProt P08631)
CSF1R (human) = CSF1R (human) (UniProt P07333)
STK16 (human) = STK16 (human) (UniProt O75716)
SRPK2 (human) = SRPK2 (human) (UniProt P78362)
SBK1 (human) = SBK1 (human) (UniProt Q52WX2)
NTRK1 (human) = NTRK1 (human) (UniProt P04629)
CDC42BPB (human) = CDC42BPB (human) (UniProt Q9Y5S2)
[4] = biological target: JAK2 JH1 catalytic (human) (UniProt O60674)
NEK4 (human) = NEK4 (human) (UniProt P51957)
STK38 (human) = STK38 (human) (UniProt Q15208)
NEK11 (human) = NEK11 (human) (UniProt Q8NG66)
MAP2K7 (human) = MAP2K7 (human) (UniProt O14733)
PRKG2 (human) = PRKG2 (human) (UniProt Q13237)
TNK2 (human) = TNK2 (human) (UniProt Q07912)
MKNK2 (human) = MKNK2 (human) (UniProt Q9HBH9)
Sequence of MKNK2 (human) (Q9HBH9 whole entry, looked up): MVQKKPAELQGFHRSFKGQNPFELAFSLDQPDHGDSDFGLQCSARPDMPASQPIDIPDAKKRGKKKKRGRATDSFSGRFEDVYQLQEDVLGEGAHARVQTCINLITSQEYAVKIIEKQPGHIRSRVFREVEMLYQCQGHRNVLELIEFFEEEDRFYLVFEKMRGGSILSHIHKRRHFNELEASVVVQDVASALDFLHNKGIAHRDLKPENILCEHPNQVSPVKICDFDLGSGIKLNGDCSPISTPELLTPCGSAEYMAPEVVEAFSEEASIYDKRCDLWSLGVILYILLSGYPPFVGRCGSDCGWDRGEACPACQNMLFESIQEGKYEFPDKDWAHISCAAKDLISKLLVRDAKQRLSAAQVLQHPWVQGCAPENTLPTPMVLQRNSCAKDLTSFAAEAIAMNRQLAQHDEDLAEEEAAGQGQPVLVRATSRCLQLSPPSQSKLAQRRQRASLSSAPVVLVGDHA

Sequence of TNK2 (human) (Q07912 whole entry, looked up): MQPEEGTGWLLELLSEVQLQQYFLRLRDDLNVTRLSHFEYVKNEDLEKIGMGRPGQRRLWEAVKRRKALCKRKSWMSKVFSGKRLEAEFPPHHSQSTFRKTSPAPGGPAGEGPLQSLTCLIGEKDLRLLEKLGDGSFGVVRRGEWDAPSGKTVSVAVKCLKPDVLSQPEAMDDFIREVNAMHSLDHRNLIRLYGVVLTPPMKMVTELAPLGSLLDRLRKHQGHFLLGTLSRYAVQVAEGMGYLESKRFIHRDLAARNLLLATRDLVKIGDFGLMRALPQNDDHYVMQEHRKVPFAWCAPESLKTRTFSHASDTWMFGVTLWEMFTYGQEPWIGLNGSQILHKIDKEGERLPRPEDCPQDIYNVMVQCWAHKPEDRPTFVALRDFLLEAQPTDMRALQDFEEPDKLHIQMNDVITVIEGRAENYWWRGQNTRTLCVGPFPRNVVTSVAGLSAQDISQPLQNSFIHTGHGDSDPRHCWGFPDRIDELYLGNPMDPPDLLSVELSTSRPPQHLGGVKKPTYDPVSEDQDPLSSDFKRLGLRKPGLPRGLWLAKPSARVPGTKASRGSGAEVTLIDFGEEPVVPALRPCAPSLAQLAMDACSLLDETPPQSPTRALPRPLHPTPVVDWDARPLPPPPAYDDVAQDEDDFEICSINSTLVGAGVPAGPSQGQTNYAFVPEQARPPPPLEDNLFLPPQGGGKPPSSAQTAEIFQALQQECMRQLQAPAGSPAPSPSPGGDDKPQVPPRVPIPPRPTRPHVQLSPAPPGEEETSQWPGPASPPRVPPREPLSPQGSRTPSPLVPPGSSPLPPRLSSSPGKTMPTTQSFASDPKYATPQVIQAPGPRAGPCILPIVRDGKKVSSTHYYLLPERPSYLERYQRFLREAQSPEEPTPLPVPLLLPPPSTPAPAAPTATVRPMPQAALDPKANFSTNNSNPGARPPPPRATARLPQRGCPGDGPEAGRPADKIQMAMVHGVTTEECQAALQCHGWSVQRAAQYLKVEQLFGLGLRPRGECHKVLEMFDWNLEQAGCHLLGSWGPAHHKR
Sequence of HCK (human) (P08631 whole entry, looked up): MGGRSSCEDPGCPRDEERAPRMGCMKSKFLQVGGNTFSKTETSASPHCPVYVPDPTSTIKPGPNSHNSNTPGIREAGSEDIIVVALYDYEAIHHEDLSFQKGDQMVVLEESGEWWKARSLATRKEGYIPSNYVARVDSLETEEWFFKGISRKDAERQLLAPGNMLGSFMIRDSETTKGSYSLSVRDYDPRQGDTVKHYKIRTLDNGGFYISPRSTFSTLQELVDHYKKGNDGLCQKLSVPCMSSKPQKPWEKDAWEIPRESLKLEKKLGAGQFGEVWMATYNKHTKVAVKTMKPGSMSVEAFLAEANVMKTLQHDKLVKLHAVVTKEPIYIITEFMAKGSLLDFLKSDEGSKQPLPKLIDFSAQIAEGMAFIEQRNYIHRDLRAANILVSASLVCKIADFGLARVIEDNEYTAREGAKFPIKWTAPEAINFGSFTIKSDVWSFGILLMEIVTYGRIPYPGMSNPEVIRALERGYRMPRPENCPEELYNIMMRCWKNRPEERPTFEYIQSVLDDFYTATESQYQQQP
Sequence of FGFR2 (human) (P21802 whole entry, looked up): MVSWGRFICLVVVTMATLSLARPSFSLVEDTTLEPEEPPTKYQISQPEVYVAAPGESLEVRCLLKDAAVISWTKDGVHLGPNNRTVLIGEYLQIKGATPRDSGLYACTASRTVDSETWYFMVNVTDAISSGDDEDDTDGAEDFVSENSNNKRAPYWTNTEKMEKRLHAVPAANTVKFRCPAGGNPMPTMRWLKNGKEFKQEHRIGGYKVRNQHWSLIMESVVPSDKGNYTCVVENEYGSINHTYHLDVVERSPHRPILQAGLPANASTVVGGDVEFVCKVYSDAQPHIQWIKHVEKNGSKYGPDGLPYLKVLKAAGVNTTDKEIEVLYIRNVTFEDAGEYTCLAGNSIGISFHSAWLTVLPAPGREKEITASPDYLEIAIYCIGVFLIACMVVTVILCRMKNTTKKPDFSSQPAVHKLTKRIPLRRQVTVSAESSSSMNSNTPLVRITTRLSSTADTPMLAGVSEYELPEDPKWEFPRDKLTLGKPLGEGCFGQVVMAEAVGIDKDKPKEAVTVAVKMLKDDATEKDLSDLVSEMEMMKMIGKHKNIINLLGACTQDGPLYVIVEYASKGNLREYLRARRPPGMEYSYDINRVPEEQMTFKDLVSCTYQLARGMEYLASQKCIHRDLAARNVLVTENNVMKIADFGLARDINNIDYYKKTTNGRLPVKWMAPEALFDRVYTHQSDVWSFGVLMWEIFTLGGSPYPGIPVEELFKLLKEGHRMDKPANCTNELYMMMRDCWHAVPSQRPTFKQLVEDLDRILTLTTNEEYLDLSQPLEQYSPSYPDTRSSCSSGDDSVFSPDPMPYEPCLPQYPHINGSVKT
Sequence of MLTK (human) (Q9NYL2 whole entry, looked up): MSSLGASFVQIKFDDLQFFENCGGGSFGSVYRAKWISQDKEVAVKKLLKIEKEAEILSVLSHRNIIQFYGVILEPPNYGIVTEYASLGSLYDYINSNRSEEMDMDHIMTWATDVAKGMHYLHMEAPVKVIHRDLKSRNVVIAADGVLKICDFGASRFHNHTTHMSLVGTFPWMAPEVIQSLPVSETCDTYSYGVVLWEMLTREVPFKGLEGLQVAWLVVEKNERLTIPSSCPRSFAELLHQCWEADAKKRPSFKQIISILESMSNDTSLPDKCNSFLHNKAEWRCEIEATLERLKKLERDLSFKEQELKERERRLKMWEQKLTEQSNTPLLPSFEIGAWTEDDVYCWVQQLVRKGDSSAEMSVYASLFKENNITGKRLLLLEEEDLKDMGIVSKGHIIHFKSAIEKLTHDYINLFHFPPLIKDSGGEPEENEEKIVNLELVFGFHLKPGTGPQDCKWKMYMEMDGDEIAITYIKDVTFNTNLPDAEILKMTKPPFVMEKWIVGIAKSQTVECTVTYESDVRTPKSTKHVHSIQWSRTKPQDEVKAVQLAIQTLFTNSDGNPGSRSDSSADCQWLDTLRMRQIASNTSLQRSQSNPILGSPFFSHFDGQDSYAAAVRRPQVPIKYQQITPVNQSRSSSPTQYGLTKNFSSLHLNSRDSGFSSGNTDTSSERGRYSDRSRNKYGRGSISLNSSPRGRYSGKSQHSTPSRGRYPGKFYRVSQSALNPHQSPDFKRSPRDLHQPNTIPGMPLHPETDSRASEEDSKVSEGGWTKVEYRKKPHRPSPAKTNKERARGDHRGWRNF
Sequence of RPS6KA3 KD1 (human) (P51812 whole entry, looked up): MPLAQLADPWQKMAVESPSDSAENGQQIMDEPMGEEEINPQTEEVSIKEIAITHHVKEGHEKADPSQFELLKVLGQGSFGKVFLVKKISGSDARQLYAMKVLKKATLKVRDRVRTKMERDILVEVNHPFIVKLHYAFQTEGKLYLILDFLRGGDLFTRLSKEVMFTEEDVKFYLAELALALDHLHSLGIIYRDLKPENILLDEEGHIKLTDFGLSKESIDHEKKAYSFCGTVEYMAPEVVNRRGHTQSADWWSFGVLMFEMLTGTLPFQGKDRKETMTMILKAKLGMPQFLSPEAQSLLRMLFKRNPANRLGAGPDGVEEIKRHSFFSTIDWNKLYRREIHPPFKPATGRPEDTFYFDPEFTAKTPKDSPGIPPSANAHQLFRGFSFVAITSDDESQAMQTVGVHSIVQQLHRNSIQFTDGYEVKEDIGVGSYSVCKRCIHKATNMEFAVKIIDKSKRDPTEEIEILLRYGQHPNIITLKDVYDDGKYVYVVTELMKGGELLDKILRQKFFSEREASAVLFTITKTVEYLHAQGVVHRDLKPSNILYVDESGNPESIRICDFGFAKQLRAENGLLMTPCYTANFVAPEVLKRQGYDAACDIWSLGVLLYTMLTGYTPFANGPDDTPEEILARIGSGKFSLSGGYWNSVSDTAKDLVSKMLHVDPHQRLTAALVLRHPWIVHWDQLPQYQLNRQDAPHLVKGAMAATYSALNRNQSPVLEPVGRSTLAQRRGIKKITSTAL
Sequence of NEK11 (human) (Q8NG66 whole entry, looked up): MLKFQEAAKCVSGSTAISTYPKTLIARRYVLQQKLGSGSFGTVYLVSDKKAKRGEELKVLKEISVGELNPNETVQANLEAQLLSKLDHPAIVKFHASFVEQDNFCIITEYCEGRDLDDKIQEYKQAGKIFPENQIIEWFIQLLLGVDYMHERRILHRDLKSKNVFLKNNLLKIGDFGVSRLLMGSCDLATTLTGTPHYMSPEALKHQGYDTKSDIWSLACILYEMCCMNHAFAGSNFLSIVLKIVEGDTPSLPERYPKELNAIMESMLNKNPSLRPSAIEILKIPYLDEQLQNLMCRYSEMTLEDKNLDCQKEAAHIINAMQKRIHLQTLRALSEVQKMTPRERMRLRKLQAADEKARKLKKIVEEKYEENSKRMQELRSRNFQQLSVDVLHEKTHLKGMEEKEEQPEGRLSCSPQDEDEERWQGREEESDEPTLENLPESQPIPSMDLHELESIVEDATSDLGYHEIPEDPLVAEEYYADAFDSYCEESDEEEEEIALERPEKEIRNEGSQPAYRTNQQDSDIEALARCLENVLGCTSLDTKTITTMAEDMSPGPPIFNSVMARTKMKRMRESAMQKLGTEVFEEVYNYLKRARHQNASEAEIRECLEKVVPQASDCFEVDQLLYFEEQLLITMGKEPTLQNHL

COCCNCCCn1c(C(=O)CF)c(-c2ccc(C)cc2)c2c(N)ncnc21
kinase still bound, per cent of control (CDK4 CCND1 (human)): 98% | kinase still bound, per cent of control (RPS6KA3 KD1 (human)): 97% | kinase still bound, per cent of control (DAPK2 (human)): 97% | kinase still bound, per cent of control (PIK3CD (human)): 100% | kinase still bound, per cent of control [1]: 100% | kinase still bound, per cent of control (ULK1 (human)): 100% | kinase still bound, per cent of control (PLK4 (human)): 100% | kinase still bound, per cent of control (DMPK (human)): 84% | kinase still bound, per cent of control (DYRK2 (human)): 89% | kinase still bound, per cent of control [2]: 100% | kinase still bound, per cent of control (CDK5 (human)): 95% | kinase still bound, per cent of control (ACVR2B (human)): 95% | kinase still bound, per cent of control (RPS6KA4 KD1 (human)): 100% | kinase still bound, per cent of control (TAOK3 (human)): 100% | kinase still bound, per cent of control (MLTK (human)): 100% | kinase still bound, per cent of control (EPHA6 (human)): 82% | kinase still bound, per cent of control (PRKCI (human)): 75% | kinase still bound, per cent of control (NUAK1 (human)): 98% | kinase still bound, per cent of control (PRKAA1 (human)): 100% | kinase still bound, per cent of control [3]: 100% | kinase still bound, per cent of control (FGFR2 (human)): 100% | kinase still bound, per cent of control (RIOK1 (human)): 69% | kinase still bound, per cent of control (PRKD1 (human)): 100% | kinase still bound, per cent of control (CIT (human)): 93% | kinase still bound, per cent of control (MAST1 (human)): 83% | kinase still bound, per cent of control (MAPK13 (human)): 89% | kinase still bound, per cent of control (MAPKAPK2 (human)): 97% | kinase still bound, per cent of control (MERTK (human)): 99% | kinase still bound, per cent of control (HCK (human)): 100% | kinase still bound, per cent of control (CSF1R (human)): 89% | kinase still bound, per cent of control (STK16 (human)): 100% | kinase still bound, per cent of control (SRPK2 (human)): 100% | kinase still bound, per cent of control (SBK1 (human)): 98% | kinase still bound, per cent of control (NTRK1 (human)): 82% | kinase still bound, per cent of control (CDC42BPB (human)): 94% | kinase still bound, per cent of control [4]: 100% | kinase still bound, per cent of control (NEK4 (human)): 100% | kinase still bound, per cent of control (STK38 (human)): 100% | kinase still bound, per cent of control (NEK11 (human)): 63% | kinase still bound, per cent of control (MAP2K7 (human)): 78% | kinase still bound, per cent of control (PRKG2 (human)): 98% | kinase still bound, per cent of control (TNK2 (human)): 100% | kinase still bound, per cent of control (MKNK2 (human)): 92%

From the kinase profiling compilation of Christmann-Franck et al. (2016)
